Measured values taken from patent publication US20050060764A1, “Mouse model for bone metabolism” (priority 2003, published 2005).
Strand notation (5' to 3'): a small letter for the sugar, then the base; units joined by * are phosphorothioate-linked, units joined directly phosphodiester-linked; [ ] holds rarer units or linkages, { } end groups; capitals alone tell only the bases. e = 2'-O-(2-methoxyethyl) (MOE); [5mC] = 5-methylcytosine; d = 2'-deoxy (DNA)

B1: PTH alone (peptide, UniProt P01270 32-115, looked up)
Parathyroid hormone: SVSEIQLMHNLGKHLNSMERVEWLRKKLQDVHNFVALGAPLAPRDAGSQRPRKKEDNVLVESHEKSLGEADKADVNVLTKAKSQ

Experiments:
mouse RANKL mRNA [1] = test: Antisense inhibition of mouse RANKL mRNA levels in C2C12 cells, quantitative real-time PCR (Table 2); format: cell-based; set-up: concentration or dose not given beside the values; conditions: averages from three experiments
Method in brief: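 C2C12 cells seeded at ~10,000 cells/cm^2, treated with antisense oligonucleotides (all C as 5-methylcytidine) in triplicate and harvested 16-24 h later. Mouse RANKL mRNA quantified by real-time RT-PCR with a FAM/TAMRA probe, with mouse GAPDH (JOE/TAMRA probe) as reference.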

rat RANKL mRNA = test: Antisense inhibition of rat RANKL mRNA levels in UMR-106 cells, quantitative real-time PCR (Table 3); format: cell-based; set-up: concentration or dose not given beside the values; conditions: averages from three experiments
Method in brief: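 UMR-106 cells transfected with antisense oligonucleotides (5-methylcytidine throughout) in triplicate, harvested 16-24 h after treatment. RANKL mRNA quantified by real-time RT-PCR with a FAM/TAMRA probe, using rat GAPDH (JOE/TAMRA probe) as the reference.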

[2] = Serum calcium concentration 24 hours after PTH infusion in mice treated with RANKL antisense oligonucleotides (Table 10); format: in vivo, mouse; conditions: mice; s.c. two weeks 5, 15, 30 or 40 mg/kg; 24 hours PTH infusion
Experimental: In accordance with the present invention, the effect of antisense oligonucleotide inhibition on PTH-induced serum calcium concentration increase was measured in mice. The serum calcium concentration in mice was measured as a function of antisense oligonucleotide dose. Calcitonin, a known bone antiresorptive agent, was used as a control for antiresorptive activity.
Female Swiss-Webster (5-8 wks old) mice fed a low-calcium diet were dosed subcutaneously for two weeks with either the oligonucleotides ISIS 180819 (SEQ ID NO: 185) or 180814 (SEQ ID NO: 180) at concentrations of 5 mg/kg, 15 mg/kg, 30 mg/kg, or 40 mg/kg. A control group of mice were treated with calcitonin (400 ng) plus PTH (1 ug/100 g/6 hr), PTH alone (1 ug/100 g/6 hr) or saline. Treatment with oligonucleotides was followed with infusion of PTH by subcutaneously implanted mini-pumps at a dose of 1 ug/100 g/6 hr. After 24 hours of PTH infusion (total PTH delivery of 4 ug/100 g), the mice were sacrificed and the serum calcium concentration was measured with the Sigma Diagnostics Calcium Kit (Sigma-Aldrich). The data, summarized in Table 10 are averages from eight mice. Percent mRNA inhibition is normalized to PTH alone treatment.

mouse RANKL mRNA [3] = test: Antisense inhibition of mouse RANKL mRNA in C2C12 cells: dose response (Table 5); format: cell-based; conditions: relative to untreated control
Experimental: Cells were seeded into 24-well plates (Falcon-353047 at a density of ˜10,000 cells/cm^2 for use in antisense oligonucleotide transfection.
Cells are treated and data are obtained in triplicate. […] Cells were harvested 16-24 hours after oligonucleotide treatment.
Probes and primers to mouse RANKL were designed to hybridize to a mouse RANKL sequence, using published sequence information (GenBank accession number AF013170.1, incorporated herein as SEQ ID NO:ll). For mouse RANKL the PCR primers were: • forward primer: […] (SEQ ID NO:12) • reverse primer: […] (SEQ ID NO: 13) and • the PCR probe was: FAM-[…]-TAMRA (SEQ ID NO: 14) where FAM is the fluorescent reporter dye and TAMRA is the quencher dye. For mouse GAPDH the PCR primers were: • forward primer: […](SEQ ID NO:15) • reverse primer: […](SEQ ID NO:16) and the • PCR probe was: 5′ JOE-[…]-TAMRA 3′ (SEQ ID NO: 17) where JOE is the fluorescent reporter dye and TAMRA is the quencher dye.
In accordance with the present invention, a subset of the antisense oligonucleotides in Example 16 was further investigated in dose-response studies. The oligonucleotides used in this investigation were ISIS 180812 (SEQ ID NO: 178), ISIS 180814 (SEQ ID NO: 180), ISIS 180819 (SEQ ID NO: 185), ISIS 180828 (SEQ ID NO: 194) and the control oligonucleotide ISIS 101757 ([…], SEQ ID NO: 355). […] All cytidine residues are 5-methylcytidines.
C2C12 cells were treated with the oligonucleotides at 10, 50, 75, 100, and 150 nM as described in other examples herein. […] The results are expressed as percent inhibition relative to the untreated control. The data, shown in Table 5, are averages from two experiments and illustrate the oligonucleotides of the present invention are able to downregulate RANKL mRNA expression in a dose-dependent manner.

[4] = Serum calcium after RANK antisense oligonucleotide treatment and PTH infusion: time course (Table 13); format: in vivo, mouse; conditions: control mice, no oligonucleotide; PTH 1 ug/100 g/6 hr 24 h, calcitonin (400 ug)
Experimental: In accordance with the present invention, ISIS 181071 was administered to mice for different time periods to evaluate its ability to inhibit RANK expression and PTH-induced serum calcium concentration increase as a function of oligonucleotide treatment time.
Female Swiss-Webster mice (5-8 wks old) were fed a low-calcium diet and received daily subcutaneous injections of 30 mg/kg of ISIS 181071 (SEQ ID NO: 356) for 2, 3, 5, 7, 10, 14, or 21 days. At the end of the oligonucleotide treatment period, mice were infused with PTH by subcutaneously implanted mini-pumps at a dose of 1 ug/100 g/6 hr. A group of control mice were dosed with either saline, PTH alone (1 ug/100 g/6 hr) or calcitonin (400 ug) plus PTH (1 ug/100 g/6 hr). Following 24 hours of PTH infusion (total PTH delivery of 4ug/100 g), the mice were sacrificed and measurements were made of serum calcium with the Sigma Diagnostics Calcium Kit (Sigma-Aldrich) and RANK mRNA expression in the proximal tibia (as described in other examples herein). Percent RANK mRNA inhibition is normalized to PTH alone treatment.

Molecule | % INHIB (inhibition of mouse RANKL mRNA levels) (mouse RANKL mRNA [1]) | % INHIB (inhibition of rat RANKL mRNA levels) (rat RANKL mRNA) | % Inhibition of RANKL mRNA (mouse RANKL mRNA [3]; 50 nM oligonucleotide) [%] | % Inhibition of RANKL mRNA (mouse RANKL mRNA [3]; 100 nM oligonucleotide) [%] | also measured
gctcgaaagtacaggaacag (antisense eG*e[5mC]*eT*e[5mC]*eG*dA*dA*dA*dG*dT*dA*d[5mC]*dA*dG*dG*eA*eA*e[5mC]*eA*eG) [ISIS 180802, 2′-MOE gapmer targeted to mouse and rat RANKL] | at least 40% | at least 40% | – | – | –
180814 (antisense eG*eT*e[5mC]*eT*eT*dA*d[5mC]*dA*d[5mC]*dA*dT*dG*dT*dA*dT*eA*eG*eA*e[5mC]*eA) [compound 180814] | 66% | – | 14 | 70 | PTH-induced increase in serum calcium concentration [2]: lessen the PTH-induced increase in serum calcium concentration; % Inhibition of RANKL mRNA (mouse RANKL mRNA [3]; 10 nM oligonucleotide): 12%; % Inhibition of RANKL mRNA (mouse RANKL mRNA [3]; 75 nM oligonucleotide): 61%; % Inhibition of RANKL mRNA (mouse RANKL mRNA [3]; 150 nM oligonucleotide): 81%
180809 (antisense eG*eG*eA*eT*eT*dT*dT*dG*dA*dT*dG*d[5mC]*dT*dG*dG*eT*eT*eT*eT*eA) [compound 180809] | 53% | 57% | – | – | –
101757 (antisense eA*eG*eG*eT*eG*d[5mC]*dT*d[5mC]*dA*dG*dG*dA*d[5mC]*dT*d[5mC]*e[5mC]*eA*eT*eT*eT) [compound 101757] | – | – | 17 | 13 | –
180807 (antisense eA*eG*e[5mC]*eA*eA*dA*dT*dG*dT*dT*dG*dG*d[5mC]*dG*dT*eA*e[5mC]*eA*eG*eG) [compound 180807] | 74% | 48% | – | – | –
B1 | – | – | – | – | Serum calcium concentration [4]: 21 mg/dL
